Test results reported in ChEMBL document CHEMBL1201862, “PubChem BioAssay data set” (2004).
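In this assay, cells in 96-well plates receive the compound at five concentrations for 48 hours. Endpoints are linearly interpolated between the surrounding concentrations. GI50 = concentration required for 50% inhibition of growth.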 Calls of active or inactive are those of the source. Cut-off read from the data, not from the text of the source: active = GI50 up to about 1.1 µM and inactive = higher.

Columns and labels:
Experiment in all cases: inhibition of tumour cell growth, NCI panel, 48 h
[1] = test system: A498
[2] = test system: NCI-H460
[3] = test system: NCI-H23
[4] = test system: EKVX
[5] = test system: SK-MEL-28
[6] = test system: KM12
[7] = test system: MOLT-4
[8] = test system: KM-20L2
[9] = test system: 786-0
[10] = test system: SNB-78
[11] = test system: HCT-116
[12] = test system: ACHN
[13] = test system: M14
[14] = test system: TK-10
[15] = test system: SK-OV-3
[16] = test system: SR
[17] = test system: OVCAR-5
[18] = test system: XF498
[19] = test system: IGROV-1
[20] = test system: K562
[21] = test system: LOX IMVI
[22] = test system: SK-MEL-5
[23] = test system: NCI-H226
[24] = test system: CAKI-1
[25] = test system: HOP-92
[26] = test system: UACC-257
[27] = test system: OVCAR-4
[28] = test system: SF-539
[29] = test system: CCRF-CEM
[30] = test system: HT-29
[31] = test system: OVCAR-8
[32] = test system: U-251
[33] = test system: SNB-75
[34] = test system: HOP-62
[35] = test system: LXFL 529
[36] = test system: RXF 393
[37] = test system: HOP-18
[38] = test system: HCT-15
[39] = test system: Malme-3M
[40] = test system: HL-60
[41] = test system: SF-295
[42] = test system: A549
[43] = test system: UACC-62
[44] = test system: OVCAR-3
[45] = test system: NCI-H522
[46] = test system: DMS-114
[47] = test system: COLO 205
[48] = test system: SN12C
[49] = test system: SF-268
[50] = test system: DMS-273
[51] = test system: RXF 631
[52] = test system: DLD-1
[53] = test system: RPMI-8226
[54] = test system: SW-620
[55] = test system: SK-MEL-2
[56] = test system: UO-31
[57] = test system: SNB-19
[58] = test system: M19-MEL
[59] = test system: HCC 2998

O=C(NCCCCCCNC(=O)c1cccc2ccccc12)c1cccc2ccccc12
GI50 [1]: 24.3 µM (inactive)
GI50 [2]: 42.5 µM (inactive)
GI50 [3]: 31.5 µM (inactive)
GI50 [4]: 20.5 µM (inactive)
GI50 [5]: > 100 µM (inactive)
GI50 [6]: > 100 µM (inactive)
GI50 [7]: > 100 µM (inactive)
GI50 [8]: > 100 µM (inactive)
GI50 [9]: 23.7 µM (inactive)
GI50 [10]: 5.42 µM (inactive)
GI50 [11]: 14.4 µM (inactive)
GI50 [12]: 31.4 µM (inactive)
GI50 [13]: 46.8 µM (inactive)
GI50 [14]: 14.9 µM (inactive)
GI50 [15]: 21.2 µM (inactive)
GI50 [16]: > 100 µM (inactive)
GI50 [17]: > 100 µM (inactive)
GI50 [18]: 3.2 µM (inactive)
GI50 [19]: 32.9 µM (inactive)
GI50 [20]: > 100 µM (inactive)
GI50 [21]: 14.2 µM (inactive)
GI50 [22]: > 100 µM (inactive)
GI50 [23]: 17.8 µM (inactive)
GI50 [24]: 21.3 µM (inactive)
GI50 [25]: 7.96 µM (inactive)
GI50 [26]: 74.3 µM (inactive)
GI50 [27]: 14.4 µM (inactive)
GI50 [28]: 11.8 µM (inactive)
GI50 [29]: > 100 µM (inactive)
GI50 [30]: > 100 µM (inactive)
GI50 [31]: 18.7 µM (inactive)
GI50 [32]: 18.3 µM (inactive)
GI50 [33]: 3.29 µM (inactive)
GI50 [34]: 20.5 µM (inactive)
GI50 [35]: 57.1 µM (inactive)
GI50 [36]: 8.51 µM (inactive)
GI50 [37]: 24.6 µM (inactive)
GI50 [38]: > 100 µM
GI50 [39]: 33.3 µM (inactive)
GI50 [40]: > 100 µM (inactive)
GI50 [41]: 1.93 µM (inactive)
GI50 [42]: 35.4 µM (inactive)
GI50 [43]: > 100 µM (inactive)
GI50 [44]: 28.9 µM (inactive)
GI50 [45]: 17.9 µM (inactive)
GI50 [46]: > 100 µM (inactive)
GI50 [47]: 1.85 µM (inactive)
GI50 [48]: 25.7 µM (inactive)
GI50 [49]: 10.3 µM (inactive)
GI50 [50]: 2.02 µM (inactive)
GI50 [51]: 47.2 µM (inactive)
GI50 [52]: 59.7 µM (inactive)
GI50 [53]: > 100 µM (inactive)
GI50 [54]: > 100 µM (inactive)
GI50 [55]: 12.2 µM (inactive)
GI50 [56]: 31.5 µM (inactive)

Clc1ccccc1C1=NN(c2ccccc2)C2c3ccccc3OCC12 (stereo unspecified)
GI50 [1]: > 100 µM (inactive)
GI50 [2]: > 100 µM (inactive)
GI50 [3]: > 100 µM (inactive)
GI50 [4]: > 100 µM (inactive)
GI50 [5]: > 100 µM (inactive)
GI50 [6]: > 100 µM (inactive)
GI50 [7]: 57.8 µM (inactive)
GI50 [8]: 73.3 µM (inactive)
GI50 [9]: 74.5 µM (inactive)
GI50 [10]: > 100 µM (inactive)
GI50 [11]: 43.3 µM (inactive)
GI50 [12]: > 100 µM (inactive)
GI50 [14]: > 100 µM (inactive)
GI50 [15]: > 100 µM (inactive)
GI50 [17]: > 100 µM (inactive)
GI50 [18]: > 100 µM (inactive)
GI50 [57]: > 100 µM (inactive)
GI50 [19]: > 100 µM (inactive)
GI50 [20]: 44.3 µM (inactive)
GI50 [21]: 88.1 µM (inactive)
GI50 [22]: 79.6 µM (inactive)
GI50 [25]: 39.6 µM (inactive)
GI50 [26]: 79.3 µM (inactive)
GI50 [29]: 64.9 µM (inactive)
GI50 [30]: 58.5 µM (inactive)
GI50 [31]: > 100 µM (inactive)
GI50 [32]: > 100 µM (inactive)
GI50 [33]: > 100 µM (inactive)
GI50 [34]: > 100 µM (inactive)
GI50 [58]: > 100 µM (inactive)
GI50 [35]: 66.7 µM (inactive)
GI50 [36]: > 100 µM (inactive)
GI50 [37]: 27.8 µM (inactive)
GI50 [59]: > 100 µM (inactive)
GI50 [39]: > 100 µM (inactive)
GI50 [40]: 41.6 µM (inactive)
GI50 [41]: 79.6 µM (inactive)
GI50 [42]: > 100 µM (inactive)
GI50 [44]: > 100 µM (inactive)
GI50 [45]: > 100 µM (inactive)
GI50 [46]: > 100 µM (inactive)
GI50 [47]: > 100 µM (inactive)
GI50 [49]: > 100 µM (inactive)
GI50 [50]: 83.8 µM (inactive)
GI50 [51]: > 100 µM (inactive)
GI50 [52]: > 100 µM (inactive)
GI50 [53]: 34.1 µM (inactive)
GI50 [54]: > 100 µM (inactive)
GI50 [55]: > 100 µM (inactive)
GI50 [56]: > 100 µM (inactive)

O=C1C=Cc2ncccc2C1=O
GI50 [1]: > 54 µM (inactive)
GI50 [2]: 20 µM (inactive)
GI50 [3]: 20.3 µM (inactive)
GI50 [4]: 23.5 µM (inactive)
GI50 [5]: 24.4 µM (inactive)
GI50 [6]: 33.7 µM (inactive)
GI50 [7]: 2.45 µM (inactive)
GI50 [8]: > 45.9 µM (inactive)
GI50 [9]: 15.7 µM (inactive)
GI50 [10]: 31 µM (inactive)
GI50 [11]: 16.9 µM (inactive)
GI50 [12]: 20.8 µM (inactive)
GI50 [13]: 18.1 µM (inactive)
GI50 [14]: > 44.9 µM (inactive)
GI50 [15]: 37.9 µM (inactive)
GI50 [17]: > 44.2 µM (inactive)
GI50 [18]: 24.6 µM (inactive)
GI50 [57]: > 78.3 µM (inactive)
GI50 [19]: 32.2 µM (inactive)
GI50 [20]: 7.71 µM (inactive)
GI50 [21]: 13.5 µM (inactive)
GI50 [22]: 14.9 µM (inactive)
GI50 [23]: > 44.9 µM (inactive)
GI50 [24]: 21.1 µM (inactive)
GI50 [25]: 21.1 µM (inactive)
GI50 [26]: 20 µM (inactive)
GI50 [27]: 5.77 µM (inactive)
GI50 [28]: 21.1 µM (inactive)
GI50 [29]: 7.05 µM (inactive)
GI50 [30]: 22.2 µM (inactive)
GI50 [31]: 16.3 µM (inactive)
GI50 [32]: 24.4 µM (inactive)
GI50 [33]: 21.3 µM (inactive)
GI50 [34]: > 54.8 µM (inactive)
GI50 [35]: 16.5 µM (inactive)
GI50 [36]: 20 µM (inactive)
GI50 [37]: > 52 µM (inactive)
GI50 [59]: > 48.1 µM (inactive)
GI50 [38]: 18.1 µM
GI50 [39]: 29.9 µM (inactive)
GI50 [40]: 5.22 µM (inactive)
GI50 [41]: 17.6 µM (inactive)
GI50 [42]: 30.8 µM (inactive)
GI50 [43]: 16.8 µM (inactive)
GI50 [44]: 23.9 µM (inactive)
GI50 [45]: 15.7 µM (inactive)
GI50 [46]: 16.5 µM (inactive)
GI50 [47]: 18 µM (inactive)
GI50 [48]: 21.2 µM (inactive)
GI50 [49]: 34.4 µM (inactive)
GI50 [50]: 17 µM (inactive)
GI50 [51]: 21.4 µM (inactive)
GI50 [52]: 18.7 µM (inactive)
GI50 [53]: 24.1 µM (inactive)
GI50 [54]: 15.4 µM (inactive)
GI50 [55]: 18.5 µM (inactive)
GI50 [56]: 30.5 µM (inactive)

CN(c1ccccc1)c1cc2ccccc2nn1
GI50 [1]: > 100 µM (inactive)
GI50 [2]: > 100 µM (inactive)
GI50 [3]: > 100 µM (inactive)
GI50 [4]: 65.8 µM (inactive)
GI50 [5]: > 100 µM (inactive)
GI50 [6]: > 100 µM (inactive)
GI50 [7]: 52.7 µM (inactive)
GI50 [8]: > 100 µM (inactive)
GI50 [9]: > 100 µM (inactive)
GI50 [10]: > 100 µM (inactive)
GI50 [11]: > 100 µM (inactive)
GI50 [12]: 74 µM (inactive)
GI50 [13]: > 100 µM (inactive)
GI50 [14]: > 100 µM (inactive)
GI50 [15]: > 100 µM (inactive)
GI50 [16]: > 100 µM (inactive)
GI50 [17]: > 100 µM (inactive)
GI50 [18]: 67 µM (inactive)
GI50 [57]: > 100 µM (inactive)
GI50 [19]: > 100 µM (inactive)
GI50 [20]: 89.7 µM (inactive)
GI50 [21]: 84.5 µM (inactive)
GI50 [22]: 43.2 µM (inactive)
GI50 [23]: > 100 µM (inactive)
GI50 [24]: > 100 µM (inactive)
GI50 [25]: > 100 µM (inactive)
GI50 [26]: > 100 µM (inactive)
GI50 [27]: > 100 µM (inactive)
GI50 [28]: > 100 µM (inactive)
GI50 [29]: 47.1 µM (inactive)
GI50 [30]: > 100 µM (inactive)
GI50 [31]: > 100 µM (inactive)
GI50 [32]: 81.8 µM (inactive)
GI50 [33]: 64.3 µM (inactive)
GI50 [34]: > 100 µM (inactive)
GI50 [58]: 59.2 µM (inactive)
GI50 [35]: 56.1 µM (inactive)
GI50 [36]: > 100 µM (inactive)
GI50 [37]: > 100 µM (inactive)
GI50 [38]: > 100 µM
GI50 [39]: 87.1 µM (inactive)
GI50 [40]: 30.5 µM (inactive)
GI50 [41]: 67.9 µM (inactive)
GI50 [42]: > 100 µM (inactive)
GI50 [43]: > 100 µM (inactive)
GI50 [44]: 53.8 µM (inactive)
GI50 [45]: 27.6 µM (inactive)
GI50 [46]: 52.2 µM (inactive)
GI50 [47]: > 100 µM (inactive)
GI50 [48]: > 100 µM (inactive)
GI50 [49]: > 100 µM (inactive)
GI50 [50]: > 100 µM (inactive)
GI50 [51]: 34.1 µM (inactive)
GI50 [52]: > 100 µM (inactive)
GI50 [53]: 70 µM (inactive)
GI50 [54]: > 100 µM (inactive)
GI50 [55]: > 100 µM (inactive)
GI50 [56]: 29.3 µM (inactive)
